Assay results reported in patent US8859819B2, “Sulphurated derivatives of resorcinol, preparation of same and cosmetic uses thereof” (Pierre Fabre Dermo-Cosmetique, priority 2009, dated 2014).

Tests used:
[1] = molecular target: T1, mushroom tyrosinase (Agaricus bisporus, UniProt C7FF04); assay: Tyrosinase inhibition test (in vitro acellular depigmenting activity); format: biochemical; conditions: for Tyrosinase depigmenting activity result: class symbol, assay from 250 to 150 μM, overall tyrosinase activity (MPMOg), L-tyrosine substrate
T1 construct: purchased Sigma T-3824
Source text: A) Determination of the Depigmenting Activity in an in vitro Acellular Test: Tyrosinase Inhibition Test)
This test is used to evaluate the depigmenting activity of the molecules tested. Tyrosinase is a limiting enzyme in melanogenesis.
It belongs to the family of oxydoreductases. It has in particular the function: monophenol monooxygenase (MPMO) and polyphenol oxidase (PPO).
It is synthesised at the level of the melanocytes. It is activated during its migration towards melanosome […]. It transforms tyrosine into DOPA then dopaquinone, which leads in fine to a polymerisation, i.e. a production of pigments (see diagram below).
The substrate: L-tyrosine, is transformed into L-DOPA by the monophenol mono oxygenase function which is transformed by the polyphenol oxidase function from tyrosinase into dopaquinone. The latter is going to self-oxidise into dopachrome which is measured by spectrophotometry at 490 nm.
More precisely, it is the overall tyrosinase activity (MPMOg) which is measured since it is the dopachrome in fine that is assayed. Thus the products tested on MPMOg (=measurement of the activity on PPO and MPMO) can cumulate the inhibition of the 2 functions, • inhibiting uniquely the MPMO function stricto sensus (transformation of tyrosine into DOPA) as a complement to the PPO test, • could inhibit PPO uniquely. General Experimental Conditions:

[2] = tested on: B16-F10 cells; assay: Melanin assay test in B16-F10 cells; format: cell-based, murine; conditions: for inhibition at 20 µM / inhibition at 10 µM: B16-F10, 72 h
Experimental: B) Melanin Assay Test in B16-F10 Cells:
This involves a test of measuring the synthesis of melanin by colorimetric assay on a murine melanoma cell line: the B16-F10 line. This test makes it possible to evaluate the depigmenting power of active ingredients.
The B16-F10 cells are cultured in 96-well plates in DMEM medium supplemented with FCS (foetal calf serum), and incubated for 24 hours at 37° C., 5% CO2. The cells are then stimulated with 0.1 μM α-MSH (to stimulate the synthesis of melanin, the stimulation observed is around 150%) and treated for 72 hours with the active ingredients to be tested. Each concentration of active ingredient is tested at least in triplicate. The total melanin followed by the intracellular melanin dissolved in the lysis buffer are then assayed by absorbance reading at 405 nm. The total proteins are assayed in the lysate and the results are expressed in mg melanin/mg proteins. The percentage of activity is calculated as follows: […]
A negative value indicates an inhibition, whereas a positive value indicates an induction of the synthesis of melanin.
• B16-F10 cell line between P10 and P20 (murine melanocytes) (ATCC, CRL-6475)
Reagents: • DMEM without phenol red (GibcoBRL, 31053-028), 200 mM Glutamax-I Supplement (GibcoBRL, 35050-038), D-PBS (GibcoBRL, 14190-094), Foetal calf serum (Invitrogen, 10270-098), Trypsine-EDTA (GibcoBRL, 25300-054), NaOH (Sigma, S8045-500G), DMSO (Sigma, 471267-1L), Nle, Phe—Melanocyte Stimulating Hormone (Sigma, M-8764), Melanin (Sigma, M-0418), BCA-Copper (Sigma, B9643 and C2284), BSA (Sigma, P0914) C) Test for the Study of the Antioxidant Capacity by Chemiluminescence (Photochem Analytik Jena) Principle: […]

[3] = Antioxidant capacity by chemiluminescence (Photochem Analytik Jena); conditions: Trolox equivalent; lower = stronger antioxidant
Experimental: This test is used to determine the antioxidant capacity of the molecules. It is a method that generates free radicals by a photochemical signal. The intensity of the oxidation is 1000 times greater than that obtained under normal conditions.
The detection is carried out by chemiluminescence. It enables the evaluation of hydrosoluble and liposoluble anti-oxidant molecules or extracts.
The results are expressed respectively in equivalent quantity of vitamin C or Trolox (6-hydroxy-2,5,7,8-tetramethylchroman-2-carboxylic acid). The sensitivity is of the order of a nanomole.
The antioxidant activity studied in this test represents the capacity to trap specifically superoxide anions by chemiluminescence.
The quantified results are expressed in Trolox equivalent (standard), i.e. in “μg of product for 1 μg of Trolox”. This signifies that a quantity×of sample is needed to obtain an activity equivalent to the activity detected for 1 μg of standard. It is an anti-oxidant power relative to a reference, which makes it possible to disregard the concentration tested.
The superoxide radical: 02^0− is generated by a photochemical reaction: L+hv (UV)+O2→L*O2→L^0++O2^0−
A part of the superoxide anions is quenched by the anti-oxidants. The remaining free radicals are quantified by chemiluminescence. L^0++O2^0−→N2+AP*^2−→AP^2−+hv (luminescence)

[4] = Protection of linoleic acid following a UV stress (Fenton conditions, MDA-TBA assay); parameters: % Protection Linoleic acid under UV/Fenton: concentration or dose not given beside the values; conditions: UV + H2O2 + iron II
Source text: D) Test of Protection of Linoleic Acid Following a UV Stress. Target: Protection of Linoleic Acid Under Fenton Conditions, UV Irradiation Linoleic acid belongs to the family of polyunsaturated fatty acids (PUFA) (AGPI). Sensitive to oxidation, linoleic acid is a favoured target for oxygenated free radicals (OFR) in biological media. When biological membranes are exposed to an oxidative stress, the components the most affected are the phospholipids constituted of PUFA and cholesterol. Their degradation leads to lipidic peroxidation and generally to destructuring. Lipidic peroxidation is a self-catalysing process which generally involves OFR. Lipidic peroxidation is in part responsible for skin ageing. The method employed to evaluate lipid peroxidation is based on the coupling of thiobarbituric acid (TBA) and secondary degradation products leading to coloured compounds detectable by spectrofluorometry. The essential secondary compound of final degradation is malondialdehyde, MDA. MDA is a carcinogenic and mutagenic aldehyde, it acts on proteins and DNA. The sample to be tested is placed in contact with linoleic acid in a weight/weight ratio. The sample undergoes an MED (Minimal Erythemal Dose) irradiation under Fenton conditions, namely in the presence of H202 and iron II in a solar simulator. Following irradiation, the reaction mixture is taken up in methanol and derivatised at 90° C. with TBA. Chromogene, the MDA-TBA complex, representative of the equimolar production of MDA is assayed by fluorimetry (excitation at 525 nm, emission at 549 nm). The results are expressed in fluorescence units, as a function of a MDA-TBA control range then expressed as concentration of the MDA-TBA complex. Then, the percentage of the starting MDA/linoleic acid (LA) ratio is determined. Then the percentage of protection of linoleic acid is determined. The product assay is expressed as weight/weight ratio, in other words in weight percentage with respect to the total quantity of linoleic acid. The maximal MDA level is determined by the condition UV+H202+iron II (F). The percentage of protection of linoleic acid represents: the % ratio of MDA under maximal stress conditions untreated over the % of MDA under stress conditions treated by the product.

[5] = Mus musculus, read-out: B16 activity results -% at X μM

T1 sequence (C7FF04 1-392 limits assumed): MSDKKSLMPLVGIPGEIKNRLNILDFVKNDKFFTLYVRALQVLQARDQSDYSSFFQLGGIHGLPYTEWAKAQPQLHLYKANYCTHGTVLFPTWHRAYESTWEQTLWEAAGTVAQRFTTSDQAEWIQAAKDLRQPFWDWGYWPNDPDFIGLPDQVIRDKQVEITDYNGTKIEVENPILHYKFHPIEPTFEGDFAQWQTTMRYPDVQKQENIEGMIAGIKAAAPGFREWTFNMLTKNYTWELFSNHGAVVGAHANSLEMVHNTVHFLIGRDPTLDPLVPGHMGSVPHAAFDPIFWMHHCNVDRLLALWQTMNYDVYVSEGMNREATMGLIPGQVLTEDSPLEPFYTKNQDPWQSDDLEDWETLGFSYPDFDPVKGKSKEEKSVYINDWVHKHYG

Q: With `Oc1ccc(Sc2ccc(O)cc2O)c(O)c1` [Example 1, 4,4′-thiodibenzene-1,3-diol] as the compound, how does the “Tyrosinase depigmenting activity result” value [1] read?
A: + + +

Q: And the inhibition at 61 µM ([2]; Mus musculus, B16-F10, 61 μM, α-MSH stimulated, 72 hours, negative value = inhibition, read-out: B16 activity results -% at X μM)?
A: 50%

Q: What about the “μg of sample for 1 μg of Trolox” value [3] of the same compound?
A: 23 μg of sample for 1 μg of Trolox

Q: What about the “% Protection Linoleic acid under UV/Fenton” value (shortened to “% Protection Linoleic acid”) [4] of the same compound?
A: 90%

Q: What does the source list for `CC(C)=CCC/C=C(\C)CC/C(C)=C/COc1cc(O)ccc1Sc1ccc(O)cc1O` [Example 2, 4-(4-hydroxy-2-((2E,6E)-3,6,11-trimethyldodcca-2,6,10-trienyloxy)phenylthio)benzene-1,3-diol]?
A: Tyrosinase depigmenting activity result [1]: + +; B16 activity results -% at X μM ([2]; 14 μM, α-MSH stimulated, 72 hours, negative value = inhibition): −50% (14 μM); μg of sample for 1 μg of Trolox [3]: 9.7 μg of sample for 1 μg of Trolox; % Protection Linoleic acid under UV/Fenton [4]: 92%

Q: What does the source list for `CC(C)=CCOc1cc(O)ccc1Sc1ccc(O)cc1O` [Example 3, 4-(4-hydroxy-2-(3-methylbut-2-enyloxy)phenylthio)benzene-1,3-diol]?
A: Tyrosinase depigmenting activity result [1]: + + +; inhibition at 20 µM [2, 5]: 41%; μg of sample for 1 μg of Trolox [3]: 4.7 μg of sample for 1 μg of Trolox; % Protection Linoleic acid under UV/Fenton [4]: 87%

Q: With `CC(C)=CCC/C(C)=C/COc1cc(O)ccc1Sc1ccc(O)cc1O` [Example 4, (E)-4-(2-(3,7-dimethylocta-2,6-dienyloxy)-4-hydroxyphenylthio)benzene-1,3-diol] as the compound, how does the “Tyrosinase depigmenting activity result” value [1] read?
A: + + +

Q: What about the inhibition at 10 µM [2, 5] of the same compound?
A: 35%

Q: What about the “μg of sample for 1 μg of Trolox” value [3] of the same compound?
A: 5.2 μg of sample for 1 μg of Trolox

Q: What about the “% Protection Linoleic acid” value [4] of the same compound?
A: 89%

Q: With `CCCCCCCCOc1ccc(Sc2ccc(O)cc2O)c(O)c1` [Example 8, 4-(2-hydroxy-4-(octyloxy)phenylthio)benzene-1,3-diol] as the compound, how does the “Tyrosinase depigmenting activity result” value [1] read?
A: + + +

Q: What about the inhibition at 10 µM [2, 5] of the same compound?
A: 40%

Q: What about the “μg of sample for 1 μg of Trolox” value [3] of the same compound?
A: 18.8 μg of sample for 1 μg of Trolox

Q: What about the “% Protection Linoleic acid” value [4] of the same compound?
A: 97%

Q: Which “Tyrosinase depigmenting activity result” value [1] does the source give for `Oc1ccc(Sc2ccc(O)cc2OCc2ccccc2)c(O)c1` [Example 9, 4-(2-(benzyloxy)-4-hydroxyphenylthio)benzene-1,3-diol] here?
A: + + +

Q: And the inhibition at 20 µM [2, 5]?
A: 31%

Q: What about the “μg of sample for 1 μg of Trolox” value [3] of the same compound?
A: 3.2 μg of sample for 1 μg of Trolox

Q: And the “% Protection Linoleic acid” value [4]?
A: 85%

Q: For `Oc1ccc(Sc2ccc(OCc3ccccc3)cc2O)c(O)c1` [Example 10, 4-(4-(benzyloxy)-2-hydroxyphenylthio)benzene-1,3-diol], which “Tyrosinase depigmenting activity result” value [1] is on record?
A: + + +

Q: And the inhibition at 20 µM [2, 5]?
A: 20%

Q: And the “μg of sample for 1 μg of Trolox” value [3]?
A: 22 μg of sample for 1 μg of Trolox

Q: And the “% Protection Linoleic acid” value [4]?
A: 94%

Q: What does the source list for `COc1ccc(COc2cc(O)ccc2Sc2ccc(O)cc2O)cc1` [Example 11, 4-(4-hydroxy-2-(4-methoxybenzyloxy)phenylthio)benzene-1,3-diol]?
A: Tyrosinase depigmenting activity result [1]: + + +; inhibition at 20 µM [2, 5]: 34%; μg of sample for 1 μg of Trolox [3]: 3.5 μg of sample for 1 μg of Trolox; % Protection Linoleic acid under UV/Fenton [4]: 91%

Q: With `CCCCCCCC(=O)Oc1cc(O)ccc1Sc1ccc(O)cc1O` [Example 15, 2-(2,4-dihydroxyphenylthio)-5-hydroxyphenyl octanoate] as the compound, how does the “Tyrosinase depigmenting activity result” value [1] read?
A: + +

Q: And the inhibition at 10 µM [2, 5]?
A: 20%

Q: What about the “μg of sample for 1 μg of Trolox” value [3] of the same compound?
A: 30 μg of sample for 1 μg of Trolox

Q: What about the “% Protection Linoleic acid” value [4] of the same compound?
A: 75%

Q: Which results are given for `O=C(CCc1ccccc1)Oc1cc(O)ccc1Sc1ccc(O)cc1O` [Example 17, 2-(2,4-dihydroxyphenylthio)-5-hydroxyphenyl 3-phenylpropanoate]?
A: Tyrosinase depigmenting activity result [1]: + + +; inhibition at 92 µM ([2]; Mus musculus, B16-F10, 92 μM, α-MSH stimulated, 72 hours, negative value = inhibition, read-out: B16 activity results -% at X μM): 50%; μg of sample for 1 μg of Trolox [3]: 3.9 μg of sample for 1 μg of Trolox; % Protection Linoleic acid under UV/Fenton [4]: 87%

Q: Which results are given for `O=C(CCc1ccccc1)Oc1ccc(Sc2ccc(O)cc2O)c(O)c1` [Example 18, 4-(2,4-dihydroxyphenylthio)-3-hydroxyphenyl 3-phenylpropanoate]?
A: Tyrosinase depigmenting activity result [1]: + + +; inhibition at 50 µM ([2]; Mus musculus, B16-F10, 50 μM, α-MSH stimulated, 72 hours, negative value = inhibition of melanin synthesis, read-out: B16 activity results -% at X μM): 20%; μg of sample for 1 μg of Trolox [3]: 24.1 μg of sample for 1 μg of Trolox; % Protection Linoleic acid under UV/Fenton [4]: 90%

Q: With `CCCCC/C=C\C/C=C\CCCCCCCC(=O)Oc1cc(O)ccc1Sc1ccc(O)cc1O` [Example 21, (9Z, 12Z)-2-(2,4-dihydroxyphenylthio)-5-hydroxyphenyl octadeca-9,12-dienoate] as the compound, how does the IC50 [1] read?
A: 11 µM

Q: What about the “Tyrosinase depigmenting activity result” value [1] of the same compound?
A: + + +

Q: And the inhibition at 32 µM ([2]; Mus musculus, B16-F10, 32 μM, α-MSH stimulated, 72 hours, negative value = inhibition, read-out: B16 activity results -% at X μM)?
A: 50%

Q: What about the “μg of sample for 1 μg of Trolox” value [3] of the same compound?
A: 5.9 μg of sample for 1 μg of Trolox
